Activity calls are given as the source filed them. No cut-off for these calls is given here.
Tests used:
[1] = molecular target: Transcription factor p65 (Mus musculus) (UniProt Q04207); test: Inhibition of LPS-induced NF-kappaB-p65 nuclear translocation in mouse RAW264.7 cells at 10 uM by DAPI staining-based immunofluorescence analysis; format: cell-based
RAW264.7 [2] = test: Anti-inflammatory activity in mouse RAW264.7 cells assessed as inhibition of LPS-induced IL-1beta production at 10 uM pretreated for 2 hrs followed by LPS stimulation measured after over night incubation by ELISA relative to control; format: functional
RAW264.7 [3] = test: Inhibition of LPS-induced JNK phosphorylation in mouse RAW264.7 cells at 10 uM measured after 24 hrs by Western blot method; format: cell-based
RAW264.7 [4] = test: Anti-inflammatory activity in mouse RAW264.7 cells assessed as inhibition of LPS-induced iNOS mRNA expression at 10 uM after 24 hrs by RT-qPCR analysis; format: functional, cell-based
RAW264.7 [5] = test: Anti-inflammatory activity in mouse RAW264.7 cells assessed as inhibition of LPS-induced TNF-alpha production at 10 uM pretreated for 2 hrs followed by LPS stimulation measured after over night incubation by ELISA relative to control; format: functional
RAW264.7 [6] = test: Anti-inflammatory activity in mouse RAW264.7 cells assessed as inhibition of LPS-induced COX-2 mRNA expression at 10 uM after 24 hrs by RT-qPCR analysis; format: functional, cell-based
RAW264.7 [7] = test: Anti-inflammatory activity in mouse RAW264.7 cells assessed as inhibition of LPS-induced IL-1beta production pretreated for 2 hrs followed by LPS stimulation measured after over night incubation by ELISA; format: functional, cell-based
RAW264.7 [8] = test: Anti-inflammatory activity in mouse RAW264.7 cells assessed as inhibition of LPS-induced TNF-alpha production pretreated for 2 hrs followed by LPS stimulation measured after over night incubation by ELISA; format: functional, cell-based
[9] = Cytotoxicity against human THP1 cells assessed as cell viability at 10 uM by CellTiter-Glo luminescent assay relative to control; format: cell-based; conditions: THP-1 cells, read-out: Activity
Mus musculus [10] = test: Anti-inflammatory activity in ICR mouse assessed as inhibition of carrageenan-induced hind paw edema volume at 10 mg/kg administered via gavage treated for 30 mins post carrageenan challenge measured after 2 to 3 hrs; format: functional, organism-based
RAW264.7 [11] = test: Anti-inflammatory activity in mouse RAW264.7 cells assessed as inhibition of LPS-induced NO release pretreated for 2 hrs followed by LPS stimulation measured after 48 hrs […]; format: functional, cell-based
RAW264.7 [12] = test: Anti-inflammatory activity in mouse RAW264.7 cells assessed as inhibition of LPS-induced IL-6 production pretreated for 2 hrs followed by LPS stimulation measured after over night incubation by ELISA; format: functional, cell-based
[13] = molecular target: MAP kinase p38 (Mus musculus) (UniProt P47811+O08911+Q9WUI1+Q9Z1B7); test: Inhibition of LPS-induced p38 phosphorylation in mouse RAW264.7 cells at 10 uM measured after 24 hrs by Western blot method; format: cell-based
[14] = molecular target: T1, NF-kappa-B inhibitor alpha (Mus musculus) (UniProt Q9Z1E3); test: Inhibition of LPS-induced IkappaBalpha phosphorylation in mouse RAW264.7 cells at 10 uM measured after 24 hrs by Western blot method; format: cell-based
T1 sequence (whole entry): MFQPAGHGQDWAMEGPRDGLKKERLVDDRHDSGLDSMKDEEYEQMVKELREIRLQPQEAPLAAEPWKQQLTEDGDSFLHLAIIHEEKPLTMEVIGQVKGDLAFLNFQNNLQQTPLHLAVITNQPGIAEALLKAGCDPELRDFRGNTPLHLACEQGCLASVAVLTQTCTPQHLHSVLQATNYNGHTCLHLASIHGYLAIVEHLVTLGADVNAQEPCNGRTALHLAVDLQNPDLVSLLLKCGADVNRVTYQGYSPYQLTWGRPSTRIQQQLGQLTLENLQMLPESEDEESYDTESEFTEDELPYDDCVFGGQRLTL

Mus musculus [15] = test: Anti-inflammatory activity in ICR mouse assessed as inhibition of carrageenan-induced hind paw edema volume at 10 mg/kg administered via gavage treated for 30 mins post carrageenan challenge measured after 3 to 5 hrs; format: functional, organism-based
RAW264.7 [16] = test: Anti-inflammatory activity in mouse RAW264.7 cells assessed as inhibition of LPS-induced PGE2 production pretreated for 2 hrs followed by LPS stimulation measured after over night incubation by ELISA; format: functional, cell-based
RAW264.7 [17] = test: Inhibition of LPS-induced ERK phosphorylation in mouse RAW264.7 cells at 10 uM measured after 24 hrs by Western blot method; format: cell-based
Mus musculus [18] = test: Anti-inflammatory activity in ICR mouse assessed as inhibition of carrageenan-induced hind paw edema volume at 10 mg/kg administered via gavage treated for 30 mins post carrageenan challenge measured after 2 to 5 hrs; format: functional, organism-based

Transcription factor p65 (Mus musculus), sequence (Q04207 whole entry): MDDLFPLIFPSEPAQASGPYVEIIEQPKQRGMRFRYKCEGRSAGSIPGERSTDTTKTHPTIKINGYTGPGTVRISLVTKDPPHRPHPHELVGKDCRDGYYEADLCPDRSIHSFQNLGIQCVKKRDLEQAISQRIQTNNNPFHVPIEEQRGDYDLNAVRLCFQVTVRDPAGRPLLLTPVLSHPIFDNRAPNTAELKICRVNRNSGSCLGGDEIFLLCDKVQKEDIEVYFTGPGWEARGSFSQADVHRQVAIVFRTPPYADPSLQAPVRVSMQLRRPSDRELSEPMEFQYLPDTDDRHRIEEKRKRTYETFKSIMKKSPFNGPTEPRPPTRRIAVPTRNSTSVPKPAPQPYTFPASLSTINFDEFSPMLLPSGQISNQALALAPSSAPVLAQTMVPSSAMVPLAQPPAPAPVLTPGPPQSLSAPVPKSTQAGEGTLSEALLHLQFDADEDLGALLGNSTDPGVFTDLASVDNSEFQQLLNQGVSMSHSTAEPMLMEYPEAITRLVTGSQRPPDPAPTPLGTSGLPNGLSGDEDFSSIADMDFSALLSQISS

Fc1cc(Nc2ncnc3[nH]cnc23)ccc1Cl
inhibition [1]: Active
inhibition at 10 µM (RAW264.7 [2]): 84.2%
inhibition (RAW264.7 [3]): Active
inhibition (RAW264.7 [4]): Active
inhibition at 10 µM (RAW264.7 [5]): 71%
inhibition (RAW264.7 [6]): Active
inhibition (RAW264.7 [7]): Dose-dependent effect
inhibition (RAW264.7 [8]): Dose-dependent effect
viability at 10 µM [9]: 99.3%
inhibition (Mus musculus [10]): Active
IC50 (RAW264.7 [11]): 4.43 µM
inhibition (RAW264.7 [12]): Dose-dependent effect
inhibition [13]: Active
inhibition [14]: Active
inhibition (Mus musculus [15]): Active
inhibition (RAW264.7 [16]): Dose-dependent effect
inhibition (RAW264.7 [17]): Active

Clc1ccc(Nc2ncnc3[nH]cnc23)cc1
inhibition at 10 µM (RAW264.7 [2]): 28.6%
inhibition at 10 µM (RAW264.7 [5]): 16.1%
viability at 10 µM [9]: 92%

COc1cccc(Nc2ncnc3[nH]cnc23)c1
inhibition [1]: Active
inhibition at 10 µM (RAW264.7 [2]): 88.9%
inhibition (RAW264.7 [3]): Active
inhibition (RAW264.7 [4]): Active
inhibition at 10 µM (RAW264.7 [5]): 69.8%
inhibition (RAW264.7 [6]): Active
inhibition (RAW264.7 [7]): Dose-dependent effect
inhibition (RAW264.7 [8]): Dose-dependent effect
viability at 10 µM [9]: 90.7%
inhibition (Mus musculus [10]): Active
IC50 (RAW264.7 [11]): 3.38 µM
inhibition (RAW264.7 [12]): Dose-dependent effect
inhibition [13]: Active
inhibition [14]: Active
inhibition (RAW264.7 [16]): Dose-dependent effect
inhibition (RAW264.7 [17]): Active

CCCn1cnc2c(NCc3ccccc3Cl)ncnc21
inhibition at 10 µM (RAW264.7 [2]): 14.1%
inhibition at 10 µM (RAW264.7 [5]): 22.4%
viability at 10 µM [9]: 103%

Clc1ccccc1CNc1[nH]cnc2ncnc1-2
inhibition [1]: Active
inhibition at 10 µM (RAW264.7 [2]): 89%
inhibition (RAW264.7 [3]): Active
inhibition (RAW264.7 [4]): Active
inhibition at 10 µM (RAW264.7 [5]): 86.2%
inhibition (RAW264.7 [6]): Active
inhibition (RAW264.7 [7]): Dose-dependent effect
inhibition (RAW264.7 [8]): Dose-dependent effect
inhibition (Mus musculus [10]): Active
IC50 (RAW264.7 [11]): 3.54 µM
inhibition (RAW264.7 [12]): Dose-dependent effect
inhibition [13]: Active
inhibition [14]: Active
inhibition (Mus musculus [18]): Active
inhibition (RAW264.7 [16]): Dose-dependent effect
inhibition (RAW264.7 [17]): Active

COc1cc(Cn2cnc3c(NCc4ccccc4Cl)ncnc32)cc(OC)c1
inhibition at 10 µM (RAW264.7 [2]): 19.8%
inhibition at 10 µM (RAW264.7 [5]): 9.65%
viability at 10 µM [9]: 90.2%

Fc1ccc(CNc2ncnc3nc[nH]c23)cc1
inhibition at 10 µM (RAW264.7 [2]): 14.6%
inhibition at 10 µM (RAW264.7 [5]): 22.4%
viability at 10 µM [9]: 92.9%

c1nc2nc[nH]c(N3CCCC3)c-2n1
inhibition at 10 µM (RAW264.7 [2]): -9.43%
inhibition at 10 µM (RAW264.7 [5]): 11.7%
viability at 10 µM [9]: 91.1%

CC(=O)NS(=O)(=O)c1ccc(Nc2ncnc3[nH]cnc23)cc1
inhibition at 10 µM (RAW264.7 [2]): 16.1%
inhibition at 10 µM (RAW264.7 [5]): 12.4%
viability at 10 µM [9]: 90.7%

Clc1cccc(Nc2ncnc3[nH]cnc23)c1
inhibition at 10 µM (RAW264.7 [2]): 12.2%
inhibition at 10 µM (RAW264.7 [5]): 18.5%
viability at 10 µM [9]: 91%

c1coc(CNc2ncnc3[nH]cnc23)c1 [KINETIN]
inhibition at 10 µM (RAW264.7 [2]): -19.5%
inhibition at 10 µM (RAW264.7 [5]): 45.9%
viability at 10 µM [9]: 107%

Oc1ccc(Nc2ncnc3[nH]cnc23)cc1
inhibition at 10 µM (RAW264.7 [2]): 12.4%
inhibition at 10 µM (RAW264.7 [5]): 18.5%
viability at 10 µM [9]: 95.9%

COc1ccc(Nc2ncnc3[nH]cnc23)cc1
inhibition at 10 µM (RAW264.7 [2]): 7.29%
inhibition at 10 µM (RAW264.7 [5]): 25.6%
viability at 10 µM [9]: 100%

Clc1ccccc1CNc1ncnc2nc[nH]c12
viability at 10 µM [9]: 93.8%

Source: ChEMBL document CHEMBL4196044, “Design, synthesis and ability of non-gold complexed substituted purine derivatives to inhibit LPS-induced inflammatory response” (Eur J Med Chem, 2018)
